Reference: article PMC8695447, “Novel Small Molecules Capable of Blocking mtRAS-Signaling Pathway” (Frontiers in Oncology, 2021)

Test system: cancer cells harboring mtRAS
Experiment: Soft agar assay (3D clonogenic assay)
Format: cell-based
Settings: 0.1 μM, 14 days
Method: Soft agar assay was conducted for 3D clonogenic assay. On the 0.7% bottom agar, cells were seeded in 6-well plate (5 × 10^3 cells/well) with 0.35% low melting agar (Lonza, #50101) containing the complete media. The cells were treated with indicated compounds for 14 days at 37°C. Colonies were stained by iodonitrotetrazolium chloride (Sigma-Aldrich, I8377) for overnight. The total area of each well was observed without magnification, and the number of colonies of each well were determined using ImageJ software (n = 3).
Figure 8 (A–F) Soft agar assay results for evaluating the effect of SIJ1795 and SIJ1772 on anchorage independent growth abilities on cancer cells harboring mtRAS. Cells were incubated with indicated compounds (0.01 µM or 0.1 µM) for 14 days. After staining with crystal violet, colonies were photographed without magnification. (G–L) Number of colonies (% of control) upon treatment with indicated compounds at 0.1 µM concentration were determined by ImageJ (n = 3, respectively). Statistical significance was calculated by a one-way ANOVA analysis (*p < 0.05, **p < 0.01, ***p < 0.001, ****p < 0.0001).

| Compound | anchorage independent cell growth |
| --- | --- |
| Cc1ccc(NC(=O)c2cccc(C(F)(F)F)c2)cc1N1Cc2cnc(Nc3cnn(C4CCN(S(C)(=O)=O)CC4)c3)nc2N(C)C1=O [SIJ1772, N-(4-Methyl-3-(1-methyl-7-((1-(1-(methylsulfonyl)piperidin-4-yl)-1H-pyrazol-4-yl)amino)-2-oxo-1,4-dihydropyrimido[4,5-d]pyrimidin-3(2H)-yl)phenyl)-3-(trifluoromethyl)benzamide] | suppressed |
| CCN1CCN(c2cccc(Nc3ncc4c(n3)N(C)C(=O)N(c3cc(NC(=O)c5cccc(C(F)(F)F)c5)ccc3C)C4)c2)CC1 [SIJ1795, N-(3-(7-((3-(4-Ethylpiperazin-1-yl)phenyl)amino)-1-methyl-2-oxo-1,4-dihydropyrimido[4,5-d]pyrimidin-3(2H)-yl)-4-methylphenyl)-3-(trifluoromethyl)benzamide] | suppressed |
